According to ChEMBL document CHEMBL5649167, “The SUV4-20 inhibitor A-196 verifies a role for epigenetics in genomic integrity” (Nat Chem Biol, 2017):
One block for each compound: values may come before it. Activity calls are given as the source filed them. The rule behind the calls is not given here.

Key:
[1] = system: U2OS; assay: Inhibition of colony formation in human U2OS cells at 1 uM incubated for 48 hrs in the presence of aphidicolin by cell clonogenic assay; type: functional, cell-based
[2] = system: U2OS; assay: Inhibition of colony formation in human U2OS cells at 1 uM incubated for 48 hrs in the presence of MMC by cell clonogenic assay; type: functional, cell-based
[3] = molecular target: Histone-lysine N-methyltransferase NSD2 (Homo sapiens) (UniProt O96028); assay: Inhibition of NSD2 (unknown origin) at 1 to 10 uM incubated for 1 hrs by scintillation proximity assay; details: dose 1-10 µM
[4] = molecular target: Histone-lysine N-methyltransferase EZH2 (Homo sapiens) (UniProt Q15910); assay: Inhibition of EZH2 (unknown origin) using Biotin-tagged H4K20me1 and [3H-SAM] as substrate at 1 to 10 uM incubated for 2 hrs by scintillation proximity assay; details: dose 1-10 µM
[5] = molecular target: Mitogen-activated protein kinase 1 (Homo sapiens) (UniProt P28482); assay: Inhibition of human ERK2 at 10 uM relative to control
[6] = system: U2OS; assay: Induction of DNA repair in human U2OS cells expressing I-SceI reporter assessed as decrease in H4K20me3 level by Western blot analysis; type: functional, cell-based
[7] = molecular target: Cyclin-dependent kinase 2 (Homo sapiens) (UniProt P24941); assay: Inhibition of human CDK2 at 10 uM relative to control
[8] = molecular target: Histone-lysine N-methyltransferase KMT5B (Homo sapiens) (UniProt Q4FZB7); assay: Binding affinity to recombinant human 6His-(Tev)-G-SUV420H1 (69 to 335 residues) assessed as increase thermal stability by measuring change in melting temperature at 50 uM in the presence of SAM by thermal shift assay
[9] = molecular target: Cyclin-dependent kinase 1 (Homo sapiens) (UniProt P06493); assay: Inhibition of human CDC2 at 10 uM relative to control
[10] = system: HL-60; assay: Cytotoxicity against human HL-60 cells assessed as cell viability at 1.5 to 100 uM incubated after 72 hrs; type: functional, cell-based; details: dose 1.5-100 µM
[11] = molecular target: Serine/threonine-protein kinase 26 (Homo sapiens) (UniProt Q9P289); assay: Inhibition of human MST4 at 10 uM relative to control
[12] = molecular target: 3-phosphoinositide-dependent protein kinase 1 (Homo sapiens) (UniProt O15530); assay: Inhibition of human PDK1 at 10 uM relative to control
[13] = system: U2OS; assay: Induction of DNA repair in human U2OS cells assessed as inhibition in 53BP1 foci formation at 1 uM measured after 24 hrs in the presence of 10 Gy of ionizing radiation by immunofluorescence analysis; type: functional, cell-based
[14] = molecular target: N-lysine methyltransferase KMT5A (Homo sapiens) (UniProt Q9NQR1); assay: Inhibition of SETD8 (unknown origin) using Biotin-tagged H4K20me1 and [3H-SAM] as substrate at 1 to 10 uM incubated for 2 hrs by scintillation proximity assay; details: dose 1-10 µM
[15] = system: U2OS; assay: Antiproliferative activity against human U2OS cells assessed as cell population doubling at 1 uM incubated for 80 days; type: functional, cell-based; details: time 80.0 day
[16] = molecular target: Histone-lysine N-methyltransferase, H3 lysine-79 specific (Homo sapiens) (UniProt Q8TEK3); assay: Inhibition of DOT1L (unknown origin) at 1 to 10 uM incubated for 1 hrs by scintillation proximity assay; details: dose 1-10 µM
[17] = molecular target: Mitogen-activated protein kinase 14 (Homo sapiens) (UniProt Q16539); assay: Inhibition of human p38alpha at 10 uM relative to control
[18] = system: U2OS; assay: Inhibition of colony formation in human U2OS cells at 1 uM incubated for 48 hrs in the presence of etoposide by cell clonogenic assay; type: functional, cell-based
[19] = system: HeLa; assay: Antiproliferative activity against human HeLa cells assessed as inhibition in H4K20me2 expression level 21 doublings by Western blot analysis; type: functional, cell-based
[20] = molecular target: Aurora kinase A (Homo sapiens) (UniProt O14965); assay: Inhibition of human AurA at 10 uM relative to control
[21] = species: Rattus norvegicus; assay: Inhibition of Rat alpha 2-Adrenoceptor at 10 uM relative to control
[22] = molecular target: Protein arginine N-methyltransferase 8 (Homo sapiens) (UniProt Q9NR22); assay: Inhibition of PRMT8 (unknown origin) using Biotin-tagged H4K20me1 and [3H-SAM] as substrate at 1 to 10 uM incubated for 2 hrs by scintillation proximity assay; details: dose 1-10 µM
[23] = system: U2OS; assay: Inhibition of colony formation in human U2OS cells at 1 uM incubated for 48 hrs in the presence of olaparib by cell clonogenic assay; type: functional, cell-based
[24] = system: HeLa; assay: Antiproliferative activity against human HeLa cells assessed as inhibition in H4K20me3 expression level for 21 doublings by Western blot analysis; type: functional, cell-based
[25] = molecular target: cAMP-dependent protein kinase (PKA) (Homo sapiens) (UniProt P22694+P17612+P22612); assay: Inhibition of human PKA at 10 uM relative to control; type: protein assay
[26] = molecular target: Histone-lysine N-methyltransferase PRDM9 (Homo sapiens) (UniProt Q9NQV7); assay: Inhibition of PRDM9 (unknown origin) using Biotin-tagged H4K20me1 and [3H-SAM] as substrate at 1 to 10 uM incubated for 2 hrs by scintillation proximity assay; details: dose 1-10 µM
[27] = system: U2OS; assay: Inhibition of colony formation in human U2OS cells at 1 uM incubated for 48 hrs in the presence of hydroxyurea by cell clonogenic assay; type: functional, cell-based
[28] = molecular target: Serine/threonine-protein kinase PAK 2 (Homo sapiens) (UniProt Q13177); assay: Inhibition of human PAK2 at 10 uM relative to control
[29] = molecular target: Serine/threonine-protein kinase PAK 4 (Homo sapiens) (UniProt O96013); assay: Inhibition of human PAK4 at 10 uM relative to control
[30] = molecular target: MAP kinase-interacting serine/threonine-protein kinase 2 (Homo sapiens) (UniProt Q9HBH9); assay: Inhibition of human MNK2 at 10 uM relative to control
[31] = molecular target: Protein kinase C beta type (Homo sapiens) (UniProt P05771); assay: Inhibition of human PKCbeta 2 at 10 uM relative to control
[32] = molecular target: Histone-lysine N-methyltransferase SETD7 (Homo sapiens) (UniProt Q8WTS6); assay: Inhibition of SETD7 (unknown origin) using Biotin-tagged H4K20me1 and [3H-SAM] as substrate at 1 to 10 uM incubated for 2 hrs by scintillation proximity assay; details: dose 1-10 µM
[33] = molecular target: Sigma non-opioid intracellular receptor 1 (Homo sapiens) (UniProt Q99720); assay: Inhibition of human Sigma non-opioid intracellular receptor 1 at 10 uM relative to control; type: cell-based
[34] = species: Homo sapiens; assay: Inhibition of human GABAA at 10 uM relative to control
[35] = molecular target: Neurotensin receptor type 1 (Homo sapiens) (UniProt P30989); assay: Inhibition of human NTS1 at 10 uM relative to control
[36] = molecular target: 5-hydroxytryptamine receptor 7 (Homo sapiens) (UniProt P34969); assay: Inhibition of human 5-HT7 in stable HEK cells at 10 uM relative to control; type: cell-based
[37] = system: MEF; assay: Antiproliferative activity against mouse MEF cells assessed as change in H4K20me3 at 10 uM incubated for 3 days by immunofluorescence analysis; type: functional, cell-based; details: time 3.0 day

Aurora kinase A (Homo sapiens), sequence (O14965 whole entry): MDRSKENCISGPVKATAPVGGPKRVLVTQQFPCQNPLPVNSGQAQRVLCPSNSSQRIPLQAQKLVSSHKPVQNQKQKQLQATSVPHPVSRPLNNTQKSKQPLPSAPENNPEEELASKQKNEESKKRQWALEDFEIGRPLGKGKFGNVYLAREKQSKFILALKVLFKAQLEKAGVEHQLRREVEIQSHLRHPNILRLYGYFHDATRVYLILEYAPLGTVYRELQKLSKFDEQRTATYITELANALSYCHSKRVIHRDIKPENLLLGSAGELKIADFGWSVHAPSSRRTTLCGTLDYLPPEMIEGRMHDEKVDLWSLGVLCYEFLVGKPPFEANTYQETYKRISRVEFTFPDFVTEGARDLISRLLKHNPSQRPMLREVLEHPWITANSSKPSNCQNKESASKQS
Histone-lysine N-methyltransferase, H3 lysine-79 specific (Homo sapiens), sequence (Q8TEK3 whole entry, looked up): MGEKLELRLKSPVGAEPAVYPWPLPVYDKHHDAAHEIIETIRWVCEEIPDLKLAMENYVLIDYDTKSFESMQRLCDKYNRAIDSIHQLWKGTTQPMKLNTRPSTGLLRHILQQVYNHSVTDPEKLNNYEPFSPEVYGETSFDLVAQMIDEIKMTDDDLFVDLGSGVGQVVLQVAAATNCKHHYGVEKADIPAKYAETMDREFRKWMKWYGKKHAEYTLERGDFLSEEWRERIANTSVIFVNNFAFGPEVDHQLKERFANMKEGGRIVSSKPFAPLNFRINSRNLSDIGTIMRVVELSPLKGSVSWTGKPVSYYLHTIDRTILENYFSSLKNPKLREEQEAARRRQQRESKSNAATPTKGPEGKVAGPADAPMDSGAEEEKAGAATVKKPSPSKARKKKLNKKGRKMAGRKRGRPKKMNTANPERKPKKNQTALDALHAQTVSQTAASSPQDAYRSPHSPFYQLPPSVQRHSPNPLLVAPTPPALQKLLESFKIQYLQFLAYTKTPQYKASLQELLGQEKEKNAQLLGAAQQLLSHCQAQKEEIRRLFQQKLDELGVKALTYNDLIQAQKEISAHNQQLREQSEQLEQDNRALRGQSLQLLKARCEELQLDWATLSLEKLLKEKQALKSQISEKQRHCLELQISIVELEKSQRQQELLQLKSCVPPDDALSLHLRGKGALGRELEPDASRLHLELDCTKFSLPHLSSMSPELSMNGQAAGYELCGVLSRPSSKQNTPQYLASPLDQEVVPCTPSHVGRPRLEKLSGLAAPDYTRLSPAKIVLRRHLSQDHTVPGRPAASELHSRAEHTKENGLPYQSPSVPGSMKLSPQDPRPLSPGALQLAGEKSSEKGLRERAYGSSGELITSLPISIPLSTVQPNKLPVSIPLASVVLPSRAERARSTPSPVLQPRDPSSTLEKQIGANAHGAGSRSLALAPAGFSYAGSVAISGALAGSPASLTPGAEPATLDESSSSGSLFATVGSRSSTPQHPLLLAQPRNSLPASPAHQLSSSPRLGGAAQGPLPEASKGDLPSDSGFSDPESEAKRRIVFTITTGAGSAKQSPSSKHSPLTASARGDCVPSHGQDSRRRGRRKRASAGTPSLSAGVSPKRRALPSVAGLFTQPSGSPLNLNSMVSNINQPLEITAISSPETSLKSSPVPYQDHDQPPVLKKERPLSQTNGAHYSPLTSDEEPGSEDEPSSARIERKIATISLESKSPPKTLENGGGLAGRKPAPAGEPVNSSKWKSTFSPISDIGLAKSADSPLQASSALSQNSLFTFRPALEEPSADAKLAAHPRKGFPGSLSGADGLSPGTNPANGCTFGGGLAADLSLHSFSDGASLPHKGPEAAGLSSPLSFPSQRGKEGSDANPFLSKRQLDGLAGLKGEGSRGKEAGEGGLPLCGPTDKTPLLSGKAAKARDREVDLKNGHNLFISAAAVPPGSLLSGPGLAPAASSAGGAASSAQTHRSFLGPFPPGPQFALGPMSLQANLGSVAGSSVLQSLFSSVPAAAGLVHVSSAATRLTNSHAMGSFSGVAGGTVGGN
5-hydroxytryptamine receptor 7 (Homo sapiens), sequence (P34969 whole entry): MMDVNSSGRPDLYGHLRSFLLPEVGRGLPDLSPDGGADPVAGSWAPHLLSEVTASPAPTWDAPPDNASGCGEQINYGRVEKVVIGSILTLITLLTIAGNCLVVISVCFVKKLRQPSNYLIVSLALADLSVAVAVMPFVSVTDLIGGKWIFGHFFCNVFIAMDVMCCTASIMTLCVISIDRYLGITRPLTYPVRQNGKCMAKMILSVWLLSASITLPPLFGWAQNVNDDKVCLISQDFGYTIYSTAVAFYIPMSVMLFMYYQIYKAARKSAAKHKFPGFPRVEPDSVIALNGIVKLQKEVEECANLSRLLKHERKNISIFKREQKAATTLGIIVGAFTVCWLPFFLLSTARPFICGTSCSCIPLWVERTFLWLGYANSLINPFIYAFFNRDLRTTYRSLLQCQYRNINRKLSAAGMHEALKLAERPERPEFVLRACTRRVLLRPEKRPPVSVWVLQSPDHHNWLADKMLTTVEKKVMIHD
Histone-lysine N-methyltransferase SETD7 (Homo sapiens), sequence (Q8WTS6 whole entry): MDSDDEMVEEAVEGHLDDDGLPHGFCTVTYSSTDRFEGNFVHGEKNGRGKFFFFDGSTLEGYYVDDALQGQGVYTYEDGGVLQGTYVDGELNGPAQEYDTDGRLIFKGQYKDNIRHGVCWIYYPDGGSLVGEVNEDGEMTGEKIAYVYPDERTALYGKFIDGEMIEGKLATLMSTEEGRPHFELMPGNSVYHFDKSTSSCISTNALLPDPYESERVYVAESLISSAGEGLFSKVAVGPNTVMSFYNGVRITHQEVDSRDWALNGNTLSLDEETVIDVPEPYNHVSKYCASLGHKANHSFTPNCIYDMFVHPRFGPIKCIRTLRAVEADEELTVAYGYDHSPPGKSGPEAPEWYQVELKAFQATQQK
Histone-lysine N-methyltransferase KMT5B (Homo sapiens), sequence (Q4FZB7 whole entry, looked up, the tested form may be a part): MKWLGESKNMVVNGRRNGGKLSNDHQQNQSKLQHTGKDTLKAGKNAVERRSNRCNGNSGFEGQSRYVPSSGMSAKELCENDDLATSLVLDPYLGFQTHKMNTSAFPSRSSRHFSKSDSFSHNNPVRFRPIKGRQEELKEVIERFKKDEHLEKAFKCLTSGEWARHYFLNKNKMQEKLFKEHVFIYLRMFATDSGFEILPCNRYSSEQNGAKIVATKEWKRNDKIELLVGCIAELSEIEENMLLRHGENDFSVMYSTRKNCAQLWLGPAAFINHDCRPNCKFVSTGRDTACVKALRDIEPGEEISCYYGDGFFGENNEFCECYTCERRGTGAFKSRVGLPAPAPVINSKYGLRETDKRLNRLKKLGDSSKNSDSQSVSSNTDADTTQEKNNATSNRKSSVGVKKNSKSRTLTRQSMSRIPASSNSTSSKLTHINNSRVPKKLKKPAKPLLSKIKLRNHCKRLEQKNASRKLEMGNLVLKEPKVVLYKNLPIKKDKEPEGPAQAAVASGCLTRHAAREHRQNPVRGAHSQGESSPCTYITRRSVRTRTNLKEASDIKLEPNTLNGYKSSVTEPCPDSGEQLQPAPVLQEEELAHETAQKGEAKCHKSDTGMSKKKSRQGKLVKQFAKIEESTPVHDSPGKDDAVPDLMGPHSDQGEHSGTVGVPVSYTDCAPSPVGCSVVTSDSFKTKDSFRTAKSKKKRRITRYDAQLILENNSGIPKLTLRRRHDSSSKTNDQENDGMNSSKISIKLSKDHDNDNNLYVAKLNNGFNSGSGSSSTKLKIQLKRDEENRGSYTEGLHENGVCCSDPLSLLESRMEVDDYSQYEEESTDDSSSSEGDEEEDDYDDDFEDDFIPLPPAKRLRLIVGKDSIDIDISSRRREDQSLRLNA
N-lysine methyltransferase KMT5A (Homo sapiens), sequence (Q9NQR1 whole entry): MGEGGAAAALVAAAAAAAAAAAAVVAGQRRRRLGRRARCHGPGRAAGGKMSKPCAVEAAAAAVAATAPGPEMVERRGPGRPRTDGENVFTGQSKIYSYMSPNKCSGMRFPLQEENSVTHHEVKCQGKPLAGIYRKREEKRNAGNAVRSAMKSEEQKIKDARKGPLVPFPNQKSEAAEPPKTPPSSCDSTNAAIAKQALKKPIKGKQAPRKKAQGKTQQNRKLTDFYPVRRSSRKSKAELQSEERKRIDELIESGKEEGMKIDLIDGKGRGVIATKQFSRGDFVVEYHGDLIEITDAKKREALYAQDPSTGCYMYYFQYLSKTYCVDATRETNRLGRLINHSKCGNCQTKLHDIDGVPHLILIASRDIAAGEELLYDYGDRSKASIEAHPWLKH
Sigma non-opioid intracellular receptor 1 (Homo sapiens), sequence (Q99720 whole entry): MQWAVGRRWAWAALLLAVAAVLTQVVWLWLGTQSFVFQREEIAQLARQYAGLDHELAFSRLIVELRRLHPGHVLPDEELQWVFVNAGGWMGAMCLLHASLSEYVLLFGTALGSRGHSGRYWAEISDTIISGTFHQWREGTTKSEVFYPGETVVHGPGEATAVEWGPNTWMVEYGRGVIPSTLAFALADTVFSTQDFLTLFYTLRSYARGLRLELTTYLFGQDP
Histone-lysine N-methyltransferase EZH2 (Homo sapiens), sequence (Q15910 whole entry, looked up): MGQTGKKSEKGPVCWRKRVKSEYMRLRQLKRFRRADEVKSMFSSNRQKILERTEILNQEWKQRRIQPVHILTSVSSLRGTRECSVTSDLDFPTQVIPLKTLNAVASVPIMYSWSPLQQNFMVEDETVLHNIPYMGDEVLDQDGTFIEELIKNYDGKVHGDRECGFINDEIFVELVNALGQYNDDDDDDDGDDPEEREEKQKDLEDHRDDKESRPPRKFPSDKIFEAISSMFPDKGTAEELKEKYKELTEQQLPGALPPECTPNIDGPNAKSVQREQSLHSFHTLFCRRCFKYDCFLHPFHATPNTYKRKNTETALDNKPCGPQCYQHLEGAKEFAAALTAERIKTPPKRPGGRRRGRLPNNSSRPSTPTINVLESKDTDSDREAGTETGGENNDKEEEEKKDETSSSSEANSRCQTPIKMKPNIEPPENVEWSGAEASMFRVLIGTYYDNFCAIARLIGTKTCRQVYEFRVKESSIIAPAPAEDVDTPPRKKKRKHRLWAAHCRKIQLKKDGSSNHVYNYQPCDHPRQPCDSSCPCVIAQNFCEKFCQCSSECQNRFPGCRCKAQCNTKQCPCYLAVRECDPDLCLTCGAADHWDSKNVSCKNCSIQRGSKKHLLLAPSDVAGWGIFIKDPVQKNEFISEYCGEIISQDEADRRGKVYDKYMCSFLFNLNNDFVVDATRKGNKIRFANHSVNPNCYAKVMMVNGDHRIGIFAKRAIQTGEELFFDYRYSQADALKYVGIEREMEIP

inhibition [3]: inactive | inhibition [4]: inactive | inhibition [5]: 1% | inhibition [7]: -1% | ΔTm [8]: 12.5 °C | inhibition [9]: 3% | inhibition [11]: -2% | inhibition [12]: -7% | inhibition [14]: inactive | inhibition [16]: inactive | inhibition [17]: -4% | inhibition [20]: -6% | inhibition [21]: 5% | inhibition [22]: inactive | inhibition [25]: -1% | inhibition [26]: inactive | inhibition [28]: -2% | inhibition [29]: -8% | inhibition [30]: 7% | inhibition [31]: -3% | inhibition [32]: inactive
SMILES: Clc1cc2c(NC3CCCC3)nnc(-c3ccncc3)c2cc1Cl
inhibition [1]: Active | inhibition [2]: Active | Activity [6]: Active | Activity [10]: Active | inhibition [13]: Active | Activity [15]: Active | inhibition [18]: Active | Activity [19]: Active | inhibition [23]: Active | Activity [24]: Active | inhibition [27]: Active

inhibition [33]: -7% | inhibition [34]: -7% | inhibition [35]: 3% | inhibition [36]: 19%
SMILES: O=C(c1nnc(NC2CCCC2)c2cc(Cl)c(Cl)cc12)N1CCC(O)CC1
Activity [37]: inactive
